From patent US10208019B2, “GLP-1 receptor agonists and uses thereof” (Pfizer Inc., priority 2016, dated 2019) come the findings set out here.

This assay addresses human GLP-1R (Homo sapiens, UniProt P43220, G168S). The assay can be described thus: CHO GLP-1R Clone H6—Assay 1: HTRF cAMP cell-based functional agonist assay (high GLP-1R density). The conditions noted are these: for EC50: read-out: Assay 1 EC50, CHO GLP-1R Clone H6, cAMP HTRF, geometric mean; for Emax: read-out: Assay 1 Emax (%), CHO GLP-1R Clone H6, relative to saturating concentration of full agonist GLP-1 (1 μM), arithmetic mean.

Sequence of human GLP-1R (P43220 24-463 G168S limits assumed): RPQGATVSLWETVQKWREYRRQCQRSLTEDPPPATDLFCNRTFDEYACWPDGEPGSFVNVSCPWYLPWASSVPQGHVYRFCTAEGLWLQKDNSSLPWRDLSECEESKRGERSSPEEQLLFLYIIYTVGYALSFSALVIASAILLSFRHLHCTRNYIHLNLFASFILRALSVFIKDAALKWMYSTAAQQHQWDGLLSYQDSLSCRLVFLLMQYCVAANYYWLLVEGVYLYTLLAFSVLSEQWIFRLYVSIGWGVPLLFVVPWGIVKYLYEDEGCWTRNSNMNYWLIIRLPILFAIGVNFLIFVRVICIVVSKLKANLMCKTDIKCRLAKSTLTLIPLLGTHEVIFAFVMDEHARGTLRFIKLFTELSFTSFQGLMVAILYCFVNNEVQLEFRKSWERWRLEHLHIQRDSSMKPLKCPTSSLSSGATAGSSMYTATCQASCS

For orientation: EC50 means the concentration needed to bring the measured effect to its halfway point. Take `COCCN1CCCC(Cn2c(CN3CCC(c4cccc(OCc5ccc(Cl)cc5F)n4)CC3)nc3ccc(C(=O)O)cc32)C1` (centres unmarked) [Example 11A-13, 2-[(4-{6-[(4-chloro-2-fluorobenzyl)oxy]pyridin-2-yl}piperidin-1-yl)methyl]-1-{[1-(2-methoxyethyl)piperidin-3-yl]methyl}-1H-benzimidazole-6-carboxylic acid]: the EC50 was above 20000 nM.
As a reminder, the Emax is the size of the effect at its maximum, as opposed to the concentration needed. As for `Cn1cc(CCn2c(CN3CCC(c4cccc(OCc5ccc(Cl)cc5F)n4)CC3)nc3ccc(C(=O)O)cc32)cn1` [Example 11A-32, 2-[(4-{6-[(4-chloro-2-fluorobenzyl)oxy]pyridin-2-yl}piperidin-1-yl)methyl]-1-[2-(1-methyl-1H-pyrazol-4-yl)ethyl]-1H-benzimidazole-6-carboxylic acid], the EC50 came out at 87 nM and the Emax is 83%.
The matching figures for `Cc1cc(Cn2c(CN3CCC(c4cccc(OCc5ccc(Cl)cc5F)n4)CC3)nc3ccc(C(=O)O)cc32)no1` [Example 11A-35, 2-[(4-{6-[(4-chloro-2-fluorobenzyl)oxy]pyridin-2-yl}piperidin-1-yl)methyl]-1-[(5-methyl-1,2-oxazol-3-yl)methyl]-1H-benzimidazole-6-carboxylic acid]: 110 nM and 74%.
The matching figures for `Cn1cc(Cn2c(CN3CCC(c4cccc(OCc5ccc(Cl)cc5F)n4)CC3)nc3ccc(C(=O)O)cc32)nn1` [Example 11A-36, 2-[(4-{6-[(4-chloro-2-fluorobenzyl)oxy]pyridin-2-yl}piperidin-1-yl)methyl]-1-[(1-methyl-1H-1,2,3-triazol-4-yl)methyl]-1H-benzimidazole-6-carboxylic acid]: 110 nM and 79%.
The like results for `COCCCn1c(CN2CCC(c3cccc(OCc4ccc(Cl)cc4F)n3)CC2)nc2ccc(C(=O)O)cc21` [Example 11A-38, 2-[(4-{6-[(4-chloro-2-fluorobenzyl)oxy]pyridin-2-yl}piperidin-1-yl)methyl]-1-(3-methoxypropyl)-1H-benzimidazole-6-carboxylic acid] were, in that order, 120 nM and 80%.
For `CCn1ccnc1Cn1c(CN2CCC(c3cccc(OCc4ccc(Cl)cc4F)n3)CC2)nc2ccc(C(=O)O)cc21` [Example 11A-39, 2-[(4-{6-[(4-chloro-2-fluorobenzyl)oxy]pyridin-2-yl}piperidin-1-yl)methyl]-1-[(1-ethyl-1H-imidazol-2-yl)methyl]-1H-benzimidazole-6-carboxylic acid], the EC50 amounted to 130 nM and the Emax is 80%.
In the case of `O=C(O)c1ccc2nc(CN3CCC(c4cccc(OCc5ccc(Cl)cc5F)n4)CC3)n(CC3CCCOC3)c2c1` (centres unmarked) [Example 11A-40, 2-[(4-{6-[(4-chloro-2-fluorobenzyl)oxy]pyridin-2-yl}piperidin-1-yl)methyl]-1-(tetrahydro-2H-pyran-3-ylmethyl)-1H-benzimidazole-6-carboxylic acid], the EC50 is 170 nM and the Emax came to 77%.
As for `O=C(O)c1ccc2nc(CN3CCC(c4cccc(OCc5ccc(Cl)cc5F)n4)CC3)n(CCc3c[nH]cn3)c2c1` [Example 11A-41, 2-[(4-{6-[(4-chloro-2-fluorobenzyl)oxy]pyridin-2-yl}piperidin-1-yl)methyl]-1-[2-(1H-imidazol-4-yl)ethyl]-1H-benzimidazole-6-carboxylic acid], the EC50 was 190 nM and the Emax amounted to 74%.
As to `CN1CC(Cn2c(CN3CCC(c4cccc(OCc5ccc(Cl)cc5F)n4)CC3)nc3ccc(C(=O)O)cc32)CC1=O` (centres unmarked) [Example 11A-42, 2-[(4-{6-[(4-chloro-2-fluorobenzyl)oxy]pyridin-2-yl}piperidin-1-yl]methyl]-1-[(1-methyl-5-oxopyrrolidin-3-yl)methyl]-1H-benzimidazole-6-carboxyl ic acid], the EC50 came out at 190 nM.
As for `Cn1cc(Cn2c(CN3CCC(c4cccc(OCc5ccc(Cl)cc5F)n4)CC3)nc3ccc(C(=O)O)cc32)cn1` [Example 11A-43, 2-[(4-{6-[(4-chloro-2-fluorobenzyl)oxy]pyridin-2-yl}piperidin-1-yl)methyl]-1-[(1-methyl-1H-pyrazol-4-yl)methyl]-1H-benzimidazole-6-carboxylic acid], the concentration for a half-maximal effect (EC50) worked out at 190 nM and the maximal effect (Emax) stood at 80%.
`Cn1cc(CCn2c(CN3CCC(c4cccc(OCc5ccc(Cl)cc5F)n4)CC3)nc3ccc(C(=O)O)cc32)nn1` [Example 11A-44, 2-[(4-{6-[(4-chloro-2-fluorobenzyl)oxy]pyridin-2-yl}piperidin-1-yl)methyl]-1-[2-(1-methyl-1H-1,2,3-triazol-4-yl)ethyl]-1H-benzimidazole-6-carboxylic acid]: the half-maximal effective concentration (EC50) was found to be 210 nM and the maximal effect (Emax) was 77%.
With `COC[C@H](C)n1c(CN2CCC(c3cccc(OCc4ccc(Cl)cc4F)n3)CC2)nc2ccc(C(=O)O)cc21` [Example 11A-45, 2-[(4-{6-[(4-chloro-2-fluorobenzyl)oxy]pyridin-2-yl}piperidin-1-yl)methyl]-1-[(2S)-1-methoxypropan-2-yl]-1H-benzimidazole-6-carboxylic acid], the EC50 amounted to 290 nM and the Emax worked out at 74%.
`COC[C@@H](C)n1c(CN2CCC(c3cccc(OCc4ccc(Cl)cc4F)n3)CC2)nc2ccc(C(=O)O)cc21` [Example 11A-46, 2-[(4-{6-[(4-chloro-2-fluorobenzyl)oxy]pyridin-2-yl}piperidin-1-yl]methyl]-1-[(2R)-1-methoxypropan-2-yl]-1H-benzimidazole-6-carboxylic acid]: the EC50 is 300 nM and the Emax stood at 66%.
The like results for `Cc1cc(Cn2c(CN3CCC(c4cccc(OCc5ccc(Cl)cc5F)n4)CC3)nc3ccc(C(=O)O)cc32)on1` [Example 11A-47, 2-[(4-{6-[(4-chloro-2-fluorobenzyl)oxy]pyridin-2-yl}piperidin-1-yl]methyl]-1-[(3-methyl-1,2-oxazol-5-yl)methyl]-1H-benzimidazole-6-carboxylic acid] were, in that order, 320 nM and 79%.
Consider `O=C(O)c1ccc2nc(CN3CCC(c4cccc(OCc5ccc(Cl)cc5F)n4)CC3)n(CC3CCOCC3)c2c1` [Example 11A-49, 2-[(4-{6-[(4-chloro-2-fluorobenzyl)oxy]pyridin-2-yl}piperidin-1-yl)methyl]-1-(tetrahydro-2H-pyran-4-ylmethyl)-1H-benzimidazole-6-carboxylic acid], for which the 50% effective concentration (EC50) was found to be 380 nM and the maximal response (Emax) was 68%.
Turning to `O=C(O)c1ccc2nc(CN3CCC(c4cccc(OCc5ccc(Cl)cc5F)n4)CC3)n(CCN3CCOCC3)c2c1` [Example 11A-50, 2-[(4-{6-[(4-chloro-2-fluorobenzyl)oxy]pyridin-2-yl}piperidin-1-yl)methyl]-1-[2-(morpholin-4-yl)ethyl]-1H-benzimidazole-6-carboxylic acid], the EC50 is 380 nM and the Emax was 75%.
The like results for `O=C(O)c1ccc2nc(CN3CCC(c4cccc(OCc5ccc(Cl)cc5F)n4)CC3)n(CC3CC(F)(F)C3)c2c1` [Example 11A-51, 2-[(4-{6-[(4-chloro-2-fluorobenzyl)oxy]pyridin-2-yl}piperidin-1-yl)methyl]-1-[(3,3-difluorocyclobutyl)methyl]-1H-benzimidazole-6-carboxylic acid] were, in that order, 390 nM and 69%.
